According to ChEMBL document CHEMBL3091365, “Optimization of O3-acyl kojic acid derivatives as potent and selective human neutrophil elastase inhibitors” (J Med Chem, 2013):

Experiments:
[1] = Stability of the compound in phosphate buffer at pH 7.4 at 100 uM by HPLC analysis; assay type: physicochemical; conditions: pH 7.4, 100 µM
Kallikrein-1 = Kallikrein-1 (Homo sapiens, UniProt P06870); test: Inhibition of human kallikrein using H-Pro-Phe-Arg-AMC acetate salt as substrate measured for 30 mins by spectrophotometry
Prothrombin = Prothrombin (Homo sapiens, UniProt P00734); test: Inhibition of human thrombin using Z-Gly-Gly-Arg-AMC.HCl as substrate measured for 30 mins by spectrophotometry
[2] = target: Urokinase-type plasminogen activator (Homo sapiens, UniProt P00749); test: Inhibition of human urokinase using Z-Gly-Gly-Arg-AMC.HCl as substrate measured for 30 mins by spectrophotometry
Cathepsin G = target: T1, Cathepsin G (Homo sapiens, UniProt P08311); test: Inhibition of human cathepsin G using Suc-Ala-Ala-Pro-Phe-p-nitroanilide as substrate incubated for 30 mins prior to substrate addition measured for 30 mins by spectrophotometry
T1 sequence (P08311 whole entry): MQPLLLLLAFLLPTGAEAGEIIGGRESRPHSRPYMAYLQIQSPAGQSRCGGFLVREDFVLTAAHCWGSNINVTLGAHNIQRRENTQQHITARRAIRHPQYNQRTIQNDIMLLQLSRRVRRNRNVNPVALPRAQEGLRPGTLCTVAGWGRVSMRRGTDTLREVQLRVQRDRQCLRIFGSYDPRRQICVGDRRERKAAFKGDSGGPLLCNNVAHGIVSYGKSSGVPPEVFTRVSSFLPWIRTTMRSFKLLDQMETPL

Neutrophil elastase = target: T2, Neutrophil elastase (Homo sapiens, UniProt P08246); test: Inhibition of human neutrophil elastase using MeO-Suc-Ala-Ala-Pro-Val-AMC as substrate incubated for 30 mins prior to substrate addition measured for 30 mins by fluorescence assay
T2 sequence (P08246 whole entry): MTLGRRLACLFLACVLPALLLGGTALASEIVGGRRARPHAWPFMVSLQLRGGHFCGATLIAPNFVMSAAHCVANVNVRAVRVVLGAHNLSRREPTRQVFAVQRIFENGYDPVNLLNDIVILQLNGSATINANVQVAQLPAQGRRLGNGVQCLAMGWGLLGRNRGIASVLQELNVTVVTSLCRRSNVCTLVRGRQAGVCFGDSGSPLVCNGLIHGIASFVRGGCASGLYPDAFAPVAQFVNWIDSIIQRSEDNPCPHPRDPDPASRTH

[3] = Half life in Sprague-Dawley rat liver microsomes by HPLC analysis; assay type: ADME
[4] = Half life in human plasma by HPLC analysis; assay type: ADME, cell-free
Trypsin = Trypsin (Homo sapiens, UniProt P07477+P07478+P35030); test: Inhibition of human trypsin using Z-Gly-Gly-Arg-AMC.HCl as substrate measured for 30 mins by spectrophotometry; assay type: protein assay
Pancreatic elastase = Pancreatic elastase (Sus scrofa, UniProt P08419+P00772); test: Inhibition of pig pancreatic elastase using MeO-Suc-Ala-Ala-Pro-Val-AMC as substrate incubated for 30 mins prior to substrate addition measured for 30 mins by fluorescence assay; assay type: protein assay
HEK-293T = test: Cytotoxicity against human HEK293T cells after 24 hrs by MTT assay; assay type: cell-based
NIH3T3 = test: cells; conditions: Mus musculus, NIH3T3, 24 h
Description: Cytotoxicity against mouse NIH/3T3 cells after 24 hrs by MTT assay

Myeloblastin = target: T3, Myeloblastin (Homo sapiens, UniProt P24158); test: Inhibition of human proteinase 3 using N-MeOSuc-Ala-Ala-Pro-Val-p-nitroanilide as substrate measured for 30 mins by spectrophotometry
T3 sequence (P24158 whole entry): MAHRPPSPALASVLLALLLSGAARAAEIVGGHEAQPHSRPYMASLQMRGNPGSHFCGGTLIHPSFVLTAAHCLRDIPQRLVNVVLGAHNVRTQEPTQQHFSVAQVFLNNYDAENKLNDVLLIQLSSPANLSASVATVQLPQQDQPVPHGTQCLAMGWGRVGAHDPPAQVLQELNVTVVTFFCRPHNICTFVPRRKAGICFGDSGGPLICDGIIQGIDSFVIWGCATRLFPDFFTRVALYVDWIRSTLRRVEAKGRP

[5] = Inhibition of human chymotrypsin using Suc-Ala-Ala-Pro-Phe-7-amino-4-methylcoumarin as substrate measured for 30 mins by spectrophotometry
Plasma = test: Metabolic stability in human plasma by HPLC analysis; assay type: ADME, cell-free

Chain of Kallikrein-1 (P06870 whole entry): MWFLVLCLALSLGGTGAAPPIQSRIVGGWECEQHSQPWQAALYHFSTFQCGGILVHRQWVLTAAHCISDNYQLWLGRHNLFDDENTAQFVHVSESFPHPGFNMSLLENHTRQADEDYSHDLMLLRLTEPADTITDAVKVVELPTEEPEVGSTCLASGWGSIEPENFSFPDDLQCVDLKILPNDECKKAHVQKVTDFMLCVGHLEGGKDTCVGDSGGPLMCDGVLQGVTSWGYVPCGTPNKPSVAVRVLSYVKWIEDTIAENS

Row | Structure (SMILES) | Stability [1] | IC50 (Kallikrein-1) [µM] | IC50 (Prothrombin) [µM] | IC50 [2] [µM] | IC50 (Cathepsin G) [µM] | IC50 (Neutrophil elastase) [µM] | half-life [3] [min] | half-life [4] [min] | IC50 (Trypsin) [µM] | IC50 (Pancreatic elastase) [µM] | IC50 (HEK-293T) [µM] | IC50 (NIH3T3) [µM] | IC50 (Myeloblastin) [µM] | IC50 [5] [µM] | Stability (Plasma)
1 | O=C(Oc1coc(CSc2nnc(NC(=O)C3CC3)s2)cc1=O)c1cccc(F)c1 | Stable |  |  |  |  |  |  |  |  |  |  |  |  |  | 
2 | CC(C)(C)C(=O)Oc1cn(-c2ccccc2)c(CSc2nc3cc(C(=O)O)ccc3o2)cc1=O |  | > 50 | 8.4 | > 50 | 19 |  |  |  |  |  |  |  |  |  | 
3 | O=C(Oc1cn(-c2ccccc2)c(CSc2nc3ccccc3s2)cc1=O)c1ccccc1 |  |  |  |  |  | 0.28 |  |  |  |  |  |  |  |  | 
4 | CC(C)(C)C(=O)Oc1cn(-c2ccccc2)c(CSc2nc3ccccc3s2)cc1=O |  |  |  |  |  | 0.96 |  |  |  |  |  |  |  |  | 
5 | CC(C)(C)C(=O)Oc1coc(CSc2nc3cc(C(=O)O)ccc3o2)cc1=O | Stable | > 50 | > 50 | > 50 | > 100 |  |  |  |  |  |  |  |  |  | 
6 | CC(C)(C)C(=O)Oc1coc(CSc2nc3ccccc3s2)cc1=O | Stable | > 50 | > 50 | > 50 | > 100 | 0.11 | < 1 | 10.8 | > 50 | > 100 | > 100 | > 100 | 5.9 | > 50 | 
7 | CC(C)(C)C(=O)Oc1ccc(S(=O)(=O)Nc2ccccc2C(=O)NCC(=O)O)cc1 | Stable | > 2 | > 2 | > 2 | > 100 |  | 19.9 |  | > 2 | > 50 | > 100 | > 100 | > 100 | > 2 | Stable
